Laboratory results published in the NIST ThermoML archive (doi:10.1016/j.jct.2018.08.036).

Columns and labels:
[1] = xn = mol fraction of the nth substance listed; details: 100 kPa, Liquid; for viscosity: Falling or rolling sphere viscometry; for speed of sound: Frequency=3 MHz, Single path-length method; for mass density: Vibrating tube method
[2] = refractive index (Na D-line) (dimensionless); xn = mol fraction of the nth substance listed; details: 100 kPa, Liquid, Standard Abbe refractometry

CCC(C)c1ccccc1 (centres undefined) [(1-methylpropyl)benzene] + CCCCCCCCCCCCCCCC
Details | mass density, [1] [kg/m3] | refractive index, [2] | speed of sound, [1] [m/s] | viscosity, [1] [mPa·s]
298.15 K, x2 = 0 | 857.89 | 1.4876 | 1313.8 | 0.912
298.15 K, x2 = 0.0702 | 846.08 | 1.4801 | 1312 | 1.004
298.15 K, x2 = 0.1382 | 836.12 | 1.4738 | 1311.4 | 1.112
298.15 K, x2 = 0.2541 | 821.7 | 1.4647 | 1312.4 | 1.33
298.15 K, x2 = 0.3113 | 815.5 | 1.4608 | 1313.7 | 1.449
298.15 K, x2 = 0.4028 | 806.76 | 1.4553 | 1316.1 | 1.644
298.15 K, x2 = 0.4757 | 800.6 | 1.4515 | 1318.4 | 1.793
298.15 K, x2 = 0.5349 | 796.04 | 1.4486 | 1320.7 | 1.924
298.15 K, x2 = 0.6167 | 790.37 | 1.4451 | 1323.2 | 2.101
298.15 K, x2 = 0.7476 | 782.25 | 1.4401 | 1328.3 | 2.387
298.15 K, x2 = 0.832 | 777.71 | 1.4373 | 1331.6 | 2.587
308.15 K, x2 = 0 | 849.78 | 1.4827 | 1274.5 | 0.796
308.15 K, x2 = 0.0702 | 838.16 | 1.4753 | 1273.2 | 0.874
308.15 K, x2 = 0.1382 | 828.35 | 1.469 | 1273.1 | 0.954
308.15 K, x2 = 0.2541 | 814.15 | 1.46 | 1274.7 | 1.128
308.15 K, x2 = 0.3113 | 808.04 | 1.4562 | 1276.1 | 1.223
308.15 K, x2 = 0.4028 | 799.42 | 1.4508 | 1278.8 | 1.375
308.15 K, x2 = 0.4757 | 793.34 | 1.447 | 1281.2 | 1.493
308.15 K, x2 = 0.5349 | 788.84 | 1.4441 | 1283.5 | 1.592
308.15 K, x2 = 0.6167 | 783.24 | 1.4407 | 1286.2 | 1.734
308.15 K, x2 = 0.7476 | 775.3 | 1.4358 | 1291.7 | 1.95
308.15 K, x2 = 0.832 | 770.73 | 1.433 | 1294.6 | 2.099
318.15 K, x2 = 0 | 841.64 | 1.4778 | 1235.7 | 0.707
318.15 K, x2 = 0.0702 | 830.21 | 1.4704 | 1235 | 0.771
318.15 K, x2 = 0.1382 | 820.55 | 1.4642 | 1235.3 | 0.838
318.15 K, x2 = 0.2541 | 806.57 | 1.4553 | 1237.4 | 0.975
318.15 K, x2 = 0.3113 | 800.55 | 1.4516 | 1239 | 1.05
318.15 K, x2 = 0.4028 | 792.05 | 1.4462 | 1241.9 | 1.174
318.15 K, x2 = 0.4757 | 786.06 | 1.4425 | 1244.5 | 1.275
318.15 K, x2 = 0.5349 | 781.7 | 1.4398 | 1246.8 | 1.356
318.15 K, x2 = 0.6167 | 776.09 | 1.4364 | 1249.7 | 1.468
318.15 K, x2 = 0.7476 | 768.18 | 1.4315 | 1254.5 | 1.642
318.15 K, x2 = 0.832 | 763.74 | 1.4288 | 1258.2 | 1.762

CCCc1ccccc1 [propylbenzene] + CCCCCCCCCCCCCCCC
Details | mass density, [1] [kg/m3] | refractive index, [2] | speed of sound, [1] [m/s] | viscosity, [1] [mPa·s]
298.15 K, x2 = 0 | 858.45 | 1.4896 | 1320.6 | 0.792
298.15 K, x2 = 0.0627 | 846.52 | 1.4817 | 1317.3 | 0.872
298.15 K, x2 = 0.1009 | 840.12 | 1.4775 | 1315.7 | 0.928
298.15 K, x2 = 0.207 | 825.01 | 1.4677 | 1314.8 | 1.092
298.15 K, x2 = 0.3093 | 813.2 | 1.4602 | 1315.7 | 1.269
298.15 K, x2 = 0.3863 | 805.79 | 1.4554 | 1317.7 | 1.408
298.15 K, x2 = 0.5055 | 796.08 | 1.4492 | 1320.9 | 1.654
298.15 K, x2 = 0.5603 | 792.22 | 1.4467 | 1322.7 | 1.776
298.15 K, x2 = 0.7042 | 783.32 | 1.441 | 1327.7 | 2.114
298.15 K, x2 = 0.7728 | 779.76 | 1.4387 | 1330 | 2.291
298.15 K, x2 = 0.8468 | 776.25 | 1.4365 | 1332.8 | 2.505
308.15 K, x2 = 0 | 850.01 | 1.4844 | 1280.6 | 0.699
308.15 K, x2 = 0.0627 | 838.3 | 1.4766 | 1277.8 | 0.766
308.15 K, x2 = 0.1009 | 832.03 | 1.4724 | 1276.8 | 0.813
308.15 K, x2 = 0.207 | 817.19 | 1.4628 | 1276.4 | 0.949
308.15 K, x2 = 0.3093 | 805.67 | 1.4554 | 1277.9 | 1.09
308.15 K, x2 = 0.3863 | 798.39 | 1.4509 | 1279.9 | 1.203
308.15 K, x2 = 0.5055 | 788.78 | 1.4448 | 1283.6 | 1.396
308.15 K, x2 = 0.5603 | 784.97 | 1.4424 | 1285.4 | 1.495
308.15 K, x2 = 0.7042 | 776.34 | 1.4368 | 1290.5 | 1.761
308.15 K, x2 = 0.7728 | 772.78 | 1.4346 | 1292.9 | 1.886
308.15 K, x2 = 0.8468 | 769.24 | 1.4323 | 1295.7 | 2.05
318.15 K, x2 = 0 | 841.53 | 1.4792 | 1241 | 0.626
318.15 K, x2 = 0.0627 | 830.05 | 1.4713 | 1238.8 | 0.683
318.15 K, x2 = 0.1009 | 823.89 | 1.4673 | 1238.2 | 0.722
318.15 K, x2 = 0.207 | 809.33 | 1.4578 | 1238.5 | 0.835
318.15 K, x2 = 0.3093 | 798.09 | 1.4506 | 1240.4 | 0.952
318.15 K, x2 = 0.3863 | 790.87 | 1.4461 | 1242.7 | 1.044
318.15 K, x2 = 0.5055 | 781.4 | 1.4402 | 1246.6 | 1.2
318.15 K, x2 = 0.5603 | 777.68 | 1.4378 | 1248.6 | 1.28
318.15 K, x2 = 0.7042 | 769.05 | 1.4324 | 1253.6 | 1.485
318.15 K, x2 = 0.7728 | 765.61 | 1.4302 | 1256.2 | 1.585
318.15 K, x2 = 0.8468 | 762.23 | 1.428 | 1258.9 | 1.713
